# In patent US7872046B2, “Crystalline form of a (3S)-aminomethyl-5-methyl-hexanoic acid prodrug and methods of use” (Xenoport, Inc., priority 2008, dated 2011):
# How the values were obtained:
# [1] = dosed either orally or directly into the colon of a mammal; cited from earlier work
# [2] = Pregabalin pharmacokinetics following administration of oral tablet formulations in monkeys (Example 14); type: in vivo, cynomolgus monkeys
# Experimental: One group of four male cynomolgus monkeys was used for the study. The mean body weight was approximately 2.9 kg at the start of the study and increased over the 9 months of the study to approximately 3.4 kg. The animals were fasted overnight and for the first 4 hours of the study after administration of each test formulation. Water was provided ad libitum.
# All formulations were evaluated in a single group of four fasted male cynomolgus monkeys with at least 5 days washout between treatments. The IR tablet formulation was administered at 75 mg-eq pregabalin (1 tablet per animal). Three different SR tablet formulations were dosed orally at either 75 mg-eq. pregabalin or 69 mg-eq. pregabalin (1 tablet each per animal).
# Blood samples were obtained from all animals at intervals up to 24 hours post-dosing. Approximately 0.3 mL of blood was collected in pre-chilled K2EDTA tubes containing 0.3 mL of methanol. Within 30 minutes, the blood samples were stored at or below −70° C.
# Quenched blood samples were frozen and stored at −20° C. prior to analysis. Samples were analyzed by a sensitive and specific LC-MS/MS method for simultaneous determination of (3S)-{[(1R)-isobutanoyloxyethoxy]carbonylaminomethyl}-5-methyl-hexanoate free acid and pregabalin concentrations.
# (§1) Blood concentration data for all analytes were analyzed by non-compartmental methods using WinNonlin (WinNonlin™ Software, version 5.2, Pharsight Corp. Mountain View, Calif.). Non-compartmental analysis was performed on individual profiles in each animal. All concentration values below the limit of quantitation (BLQ) were treated as 0 (zero) for the pharmacokinetic analysis. Low concentration values at predose were treated as BLQ. Nominal sample collection time points were used for the calculation of pharmacokinetic parameters. All concentration data were plotted using SigmaPlot (SigmaPlot™, Version 9.0, Systat Software Inc., Richmond, Calif.).
# (§2) The maximum concentration (Cmax) and time to Cmax(Tmax) were obtained by observation. The apparent elimination half-life (T1/2) was obtained by linear regression of three or more log-transformed data points in the terminal phase. The area under the concentration versus time curve (AUClast) was obtained by the linear trapezoidal method using concentration data up to the last quantifiable concentration. The AUC value extrapolated to infinity (AUCinf) was calculated as: AUCinf=AUClast+Clast/λz where tlast is the time of the last quantifiable concentration (Clast) and λz is the rate constant of the apparent terminal elimination phase.
# The bioavailability (F) of pregabalin after extravascular dosing of pregabalin or prodrug was calculated by comparison to data following intravenous administration of pregabalin as follows: F(%)=100×(AUCex/Doseex)/(AUCiv/Doseiv) where AUCex is the area under the pregabalin concentration versus time curve in μg×hr/mL following extravascular administration of pregabalin or crystalline calcium (3S)-{[(1R)-isobutanoyloxyethoxy]carbonylaminomethyl}-5-methyl-hexanoate hydrate formulation; Doseex is the extravascular dose expressed in mg-equivalents of pregabalin/kg body weight; AUCiv is the area under the pregabalin concentration versus time curve in μg×hr/mL following intravenous administration of pregabalin; and Doseiv is the intravenous dose expressed in mg-equivalents of pregabalin/kg body weight. […]
# [3] = Pregabalin pharmacokinetics following intracolonic administration in monkeys (Example 12); type: in vivo, cynomologus monkeys; conditions: 10 mg-eq PG/kg
# Experimental: The pharmacokinetics of pregabalin and crystalline calcium (3S)-{[(1R)-isobutanoyloxyethoxy]carbonylaminomethyl}-5-methyl-hexanoate hydrate following intracolonic administration in monkeys was determined.
# A group of four male cynomologus monkeys received an intracolonic dose of pregabalin or crystalline calcium (3S)-{[(1R)-isobutanoyloxyethoxy]carbonylaminomethyl}-5-methyl-hexanoate hydrate (10 mg-eq pregabalin/kg). A 7-day wash-out period was allowed between treatments. Blood samples (300 μL) were collected from all animals prior to dosing and at intervals up to 24 hours post-dosing and immediately quenched in tubes containing K2EDTA to prevent hydrolysis. Two aliquots (100 μL each) were immediately quenched with 300 μL methanol. All quenched blood samples were subsequently analyzed for (3S)-{[(1R)-isobutanoyloxyethoxy]carbonylaminomethyl}-5-methyl-hexanoate free acid and pregabalin using LC-MS/MS.
# Pregabalin was obtained from Teva (Peteh Tiqva, Israel). Crystalline calcium (3S)-{[(1R)-isobutanoyloxyethoxy]carbonylaminomethyl}-5-methyl-hexanoate hydrate was synthesized from commercial pregabalin according to Examples 1-6.
# Cynomologus monkeys (body weight approximately 2.5 kg to 5.0 kg) were used in the study. Monkeys were fasted overnight and for the first 4 hours after dose administration. Water was provided ad libitum. For intracolonic administration, pregabalin or crystalline calcium (3S)-{[(1R)-isobutanoyloxyethoxy]carbonylaminomethyl}-5-methyl-hexanoate hydrate was suspended in 0.5% methylcellulose/0.1% Tween 80 in sodium phosphate buffer at pH 7.4. Blood samples were analyzed and pharmacokinetic analysis performed as described in Example 14.
# as §1, §2
# The bioavailability (F) of pregabalin after extravascular dosing of pregabalin or prodrug was calculated by comparison to data following intravenous administration of pregabalin as follows: F(%)=100×(AUCex/Doseex)/(AUCiv/Doseiv) where AUCex is the area under the pregabalin concentration versus time curve in μg×hr/mL following extravascular administration of pregabalin or crystalline calcium (3S)-{[(1R)-isobutanoyloxyethoxy]carbonylaminomethyl}-5-methyl-hexanoate hydrate formulation; Doseex is the extravascular dose expressed in mg-equivalents of pregabalin/kg body weight; AUCiv is the area under the pregabalin concentration versus time curve in μg×hr/mL following intravenous administration of pregabalin; and Doseiv is the intravenous dose expressed in mg-equivalents of pregabalin/kg body weight.
# [4] = Hygroscopicity of solid forms; type: physicochemical; conditions: solid material
# [5] = IR tablet, 75 mg-eq PG (22.4 mg-eq PG/kg)
# [6] = SR1 tablet, 75 mg-eq PG (22.3 mg-eq PG/kg)
# [7] = SR2 tablet, 69 mg-eq PG (21.1 mg-eq PG/kg)
# [8] = SR tablet, 75 mg-eq PG (21.7 mg-eq PG/kg)
compound,measurement,setting,value
"CC(C)C[C@H](CNC(=O)OC(C)OC(=O)C(C)C)CC(=O)O (stereo partly drawn) [(1), (3S)-{[1-Isobutanoyloxyethoxy]carbonylaminomethyl}-5-methyl-hexanoic acid]",bioavailability as pregabalin,[1],high bioavailability
"CC(C)C[C@H](CN)CC(=O)O [Pregabalin, (3S)-aminomethyl-5-methyl-hexanoic acid]","F, bioavailability (based on AUClast) relative to AUCinf of intravenous pregabalin at 8 mg/kg, mean (SD)","[2]; LYRICA capsules, 150 mg-eq PG (52.4 mg-eq PG/kg)",41 (9) %
same,AUC(0-t),"[2]; male, cynomolgus monkey, whole blood, LYRICA capsules, 150 mg-eq PG (52.4 mg-eq PG/kg), read-out: AUClast, pregabalin in blood, mean (SD)",188000 ng·h/mL
same,Cmax,"[2]; male, cynomolgus monkey, whole blood, LYRICA capsules, 150 mg-eq PG (52.4 mg-eq PG/kg), read-out: Cmax, pregabalin in blood, mean (SD)",21900 ng/mL
same,Tmax,"[2]; male, cynomolgus monkey, whole blood, LYRICA capsules, 150 mg-eq PG (52.4 mg-eq PG/kg), read-out: Tmax, pregabalin in blood, mean (SD)",3 h
same,AUC(0-inf),"[3]; male, monkey, whole blood, 10 mg/kg, read-out: AUCinf, pregabalin in blood, mean (SD)",3100 ng·h/mL
same,AUC(0-t),"[3]; male, monkey, whole blood, 10 mg/kg, read-out: AUClast, pregabalin in blood, mean (SD)",2200 ng·h/mL
same,Cmax,"[3]; male, monkey, whole blood, 10 mg/kg, read-out: Cmax, pregabalin in blood, mean (SD)",240 ng/mL
same,half-life,"[3]; male, monkey, whole blood, 10 mg/kg, read-out: T1/2, pregabalin in blood, mean (SD) (converted)",6.15 h
same,Tmax,"[3]; male, monkey, whole blood, 10 mg/kg, read-out: Tmax, pregabalin in blood, mean (SD)",0.5 h
same,bioavailability,"[3]; male, monkey, whole blood, other: intracolonic, 8 mg/kg, read-out: F, bioavailability of pregabalin relative to IV pregabalin at 8 mg/kg, mean (SD)",2.7%
calcium (3S)-{[(1R)-isobutanoyloxyethoxy]carbonylaminomethyl}-5-methyl-hexanoate hydrate [(3a)],"AUClast, pregabalin in blood, mean (SD)",[2]; [5],163 (25) μg × hr/mL
same,"Cmax, pregabalin in blood, mean (SD)",[2]; [5],19.3 (2.4) μg/mL
same,"F, bioavailability (based on AUClast) relative to AUCinf of intravenous pregabalin at 8 mg/kg, mean (SD)",[2]; [5],82 (13) %
same,"Tmax, pregabalin in blood, mean (SD)",[2]; [5],2.0 (1.4) hr
same,"AUClast, pregabalin in blood, mean (SD)",[2]; [6],104 (16) μg × hr/mL
same,"Cmax, pregabalin in blood, mean (SD)",[2]; [6],7.2 (1.2) μg/mL
same,"F, bioavailability (based on AUClast) relative to AUCinf of intravenous pregabalin at 8 mg/kg, mean (SD)",[2]; [6],52 (6) %
same,"Tmax, pregabalin in blood, mean (SD)",[2]; [6],8.0 (6.9) hr
same,"AUClast, pregabalin in blood, mean (SD)",[2]; [7],70 (1) μg × hr/mL
same,"Cmax, pregabalin in blood, mean (SD)",[2]; [7],5.0 (0.3) μg/mL
same,"F, bioavailability (based on AUClast) relative to AUCinf of intravenous pregabalin at 8 mg/kg, mean (SD)",[2]; [7],35 (9) %
same,"Tmax, pregabalin in blood, mean (SD)",[2]; [7],14.0 (3.5) hr
same,"AUClast, pregabalin in blood, mean (SD)",[2]; [8],137 (40) μg × hr/mL
same,"Cmax, pregabalin in blood, mean (SD)",[2]; [8],13.5 (3.2) μg/mL
same,"F, bioavailability (based on AUClast) relative to AUCinf of intravenous pregabalin at 8 mg/kg, mean (SD)",[2]; [8],70 (16) %
same,"Tmax, pregabalin in blood, mean (SD)",[2]; [8],3.2 (1.5) hr
same,"AUCinf, pregabalin in blood, mean (SD)",[3],55.9 (12.1) μg × hr/mL
same,"AUClast, pregabalin in blood, mean (SD)",[3],54.5 (11.3) μg × hr/mL
same,"Cmax, pregabalin in blood, mean (SD)",[3],7.54 (1.89) μg/mL
same,"T1/2, pregabalin in blood, mean (SD)",[3],4.17 (1.15) hr
same,"Tmax, pregabalin in blood, mean (SD)",[3],0.88 (0.25) hr
same,hygroscopicity,[4],hygroscopic
